Drawing on PubChem BioAssay (NCI), this text covers GI50 and TGI for 9 molecules.

Among the test systems are HS 578T breast; SK-MEL-2 melanoma; K-562 leukemia; HCC-2998 colon; HL-60(TB) leukemia; TK-10 renal; T-47D breast; UACC-257 melanoma.
What all share (assay): NCI tumour cell line growth inhibition, 48 h

SMILES strings stand for the structures.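 Method: 48-hour compound exposure of cells in 96-well plates, five concentrations, linear interpolation of endpoints. At the GI50, growth is halved. TGI is the concentration that stops growth completely.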

`NC(N)=N/N=C(/c1ccccc1)c1ccc(Cl)cc1`: the GI50 was 8.57 µM in the test on HS 578T breast; above 100 µM in the test on SK-MEL-2 melanoma; 2.95 µM in the test with K-562 leukemia; 16.3 µM with HCC-2998 colon; 1.34 µM in the test on HL-60(TB) leukemia; 32 µM with TK-10 renal. Further, the GI50 in the test with T-47D breast and in the test with UACC-257 melanoma was above 100 µM throughout. The TGI in the test with HS 578T breast was 51.7 µM; in the test with SK-MEL-2 melanoma, above 100 µM; in the test with K-562 leukemia, above 100 µM; with HCC-2998 colon, 47.5 µM; in the test on HL-60(TB) leukemia it was 62.2 µM; with TK-10 renal, above 100 µM. In addition, the TGI with T-47D breast and with UACC-257 melanoma was above 100 µM each time.

In the case of `c1ccc2c(-c3nc4ccccc4[nH]3)cccc2c1`, the GI50 was 2.49 µM in the test on HS 578T breast; 2.15 µM with SK-MEL-2 melanoma; 0.541 µM in the test on K-562 leukemia; 6.96 µM with HCC-2998 colon; 2.78 µM with HL-60(TB) leukemia; 8.15 µM with TK-10 renal. For the same molecule, the GI50 with T-47D breast was 6.06 µM; in the test with UACC-257 melanoma, 3.87 µM. In addition, the TGI in the test with HS 578T breast is 17.2 µM; in the test on SK-MEL-2 melanoma it was 8.68 µM; in the test with K-562 leukemia, 18 µM; with HCC-2998 colon it was above 100 µM; in the test on HL-60(TB) leukemia it was 14.8 µM; with TK-10 renal, 55.7 µM. For the same molecule, the results for the TGI in the test on T-47D breast and in the test with UACC-257 melanoma were above 100 µM and 84.4 µM, respectively.

On to `COc1cc(/C=C/C(=O)C(C(=O)/C=C/c2ccc(OC(=O)CCNc3nnc(C)s3)c(OC)c2)C(=O)CCNc2nnc(C)s2)ccc1OC(=O)CCNc1nnc(C)s1`, for which the GI50 in the test with HS 578T breast was 2.77 µM; with SK-MEL-2 melanoma, 2.85 µM; with K-562 leukemia, 2.23 µM; in the test with HCC-2998 colon, 1.77 µM; in the test on HL-60(TB) leukemia, 1.77 µM; in the test on TK-10 renal it was 4.03 µM. The GI50 in the test on T-47D breast was 4.14 µM; with UACC-257 melanoma, 2.64 µM. For the same molecule, the TGI in the test on HS 578T breast came out at 9.7 µM; in the test with SK-MEL-2 melanoma it was 12.5 µM; in the test on K-562 leukemia, 8.01 µM; in the test with HCC-2998 colon it was 3.2 µM; with HL-60(TB) leukemia, 3.93 µM; with TK-10 renal, 13.7 µM. Besides, the TGI in the test with T-47D breast was above 47.5 µM; in the test on UACC-257 melanoma, 8.31 µM.

Take `COc1ccc(Cn2cc3c(c2-c2ccc(O)cc2)CCc2cnoc2-3)cc1`: the GI50 in the test with HS 578T breast was 0.252 µM; in the test on SK-MEL-2 melanoma, 0.379 µM; in the test with K-562 leukemia, 0.13 µM; in the test on HCC-2998 colon it was 0.602 µM; with HL-60(TB) leukemia it was 0.221 µM; in the test with TK-10 renal, 0.603 µM. The values for the GI50 with T-47D breast and in the test with UACC-257 melanoma were 0.377 µM and 13.7 µM, respectively. Moreover, the TGI with HS 578T breast amounted to 6.62 µM; with SK-MEL-2 melanoma it was 20.2 µM; with K-562 leukemia it was 16.6 µM; in the test on HCC-2998 colon, 12.9 µM; in the test on HL-60(TB) leukemia, 0.745 µM; in the test with TK-10 renal it was 24.4 µM. In addition, the figures for the TGI in the test on T-47D breast and in the test with UACC-257 melanoma were 23.7 µM and 30.6 µM, respectively.

As for `O=C(Nc1cccnc1)c1cccc([N+](=O)[O-])c1`, the GI50 with HS 578T breast, in the test on SK-MEL-2 melanoma, in the test on K-562 leukemia, in the test on HCC-2998 colon, in the test on HL-60(TB) leukemia and in the test on TK-10 renal was above 100 µM each time. In addition, the GI50 in the test on T-47D breast and with UACC-257 melanoma was above 100 µM in each case. Moreover, the TGI in the test on HS 578T breast, in the test with SK-MEL-2 melanoma, with K-562 leukemia, with HCC-2998 colon, in the test on HL-60(TB) leukemia and in the test with TK-10 renal was above 100 µM throughout. Further, the TGI with T-47D breast and with UACC-257 melanoma was above 100 µM in each case.

Regarding `O[C@@H]1CCCN1Cc1cc2cc3c(cc2c2cc(OCc4ccccc4)ccc12)OCO3`, the GI50 in the test on HS 578T breast is 2.82 µM; with SK-MEL-2 melanoma it was 2.23 µM; in the test with K-562 leukemia, 2.71 µM; in the test on HCC-2998 colon it was 1.85 µM; in the test on HL-60(TB) leukemia, 1.94 µM; in the test on TK-10 renal, 5.85 µM. The values for the GI50 in the test on T-47D breast and with UACC-257 melanoma were 2.93 µM and 2.17 µM, respectively. Moreover, the TGI in the test on HS 578T breast worked out at 9.07 µM; in the test with SK-MEL-2 melanoma it was 4.79 µM; in the test with K-562 leukemia it was 8.83 µM; in the test with HCC-2998 colon it was 3.76 µM; in the test with HL-60(TB) leukemia, 4.13 µM; in the test on TK-10 renal, 19.8 µM. For the same molecule, the values for the TGI with T-47D breast and in the test on UACC-257 melanoma were 11.7 µM and 4.37 µM, respectively.

`O=C1/C(=C/c2ccc(Cl)cc2)CN(Cc2cn(CCNc3ccnc4cc(Cl)ccc34)nn2)C/C1=C\c1ccc(Cl)cc1`: the GI50 in the test on HS 578T breast was 0.724 µM; with SK-MEL-2 melanoma, 1.88 µM; in the test on K-562 leukemia it was 0.302 µM; in the test with HCC-2998 colon, 0.246 µM; in the test with HL-60(TB) leukemia, 0.332 µM; in the test with TK-10 renal it was 0.483 µM. Moreover, the GI50 with T-47D breast is 0.946 µM; with UACC-257 melanoma, 1.59 µM. The TGI in the test on HS 578T breast stood at 13.5 µM; in the test on SK-MEL-2 melanoma it was 3.4 µM; with K-562 leukemia it was 1.08 µM; in the test on HCC-2998 colon it was 0.563 µM; in the test on HL-60(TB) leukemia it was 1.1 µM; in the test with TK-10 renal, 1.6 µM. For the same molecule, the TGI in the test on T-47D breast is 3.62 µM; in the test with UACC-257 melanoma, 3.02 µM.

Turning to `O=C(Nc1cccc([N+](=O)[O-])c1)c1ccc2ccccc2c1O`, the GI50 in the test with HS 578T breast was 2.91 µM; in the test with SK-MEL-2 melanoma it was 3.18 µM; with K-562 leukemia, 2.79 µM; in the test on HCC-2998 colon, 5.01 µM; with HL-60(TB) leukemia it was 4.71 µM; in the test on TK-10 renal, 4.59 µM. The GI50 in the test with T-47D breast is 2.64 µM; in the test on UACC-257 melanoma, 2.42 µM. For the same molecule, the TGI in the test with HS 578T breast was above 28.4 µM; with SK-MEL-2 melanoma, 16.1 µM; with K-562 leukemia, above 100 µM; in the test with HCC-2998 colon it was above 100 µM; in the test on HL-60(TB) leukemia, above 44.5 µM; in the test on TK-10 renal, above 47.4 µM. The figures for the TGI in the test with T-47D breast and in the test on UACC-257 melanoma were above 30.4 µM and 7.34 µM, respectively.

Regarding `CCCCCCCCCCCCCCCCOC(=O)c1c(C)[nH]c(/C=C2\N=C(c3ccc[nH]3)C=C2OC)c1C`, the GI50 in the test with HS 578T breast is 1.41 µM; in the test with SK-MEL-2 melanoma, 0.249 µM; with K-562 leukemia, 0.413 µM; in the test with HCC-2998 colon, 0.244 µM; with HL-60(TB) leukemia it was 0.151 µM; in the test on TK-10 renal, 0.759 µM. Further, the GI50 in the test with T-47D breast was 0.433 µM; in the test on UACC-257 melanoma, 9.69 µM. Moreover, the TGI in the test on HS 578T breast is 9.38 µM; in the test with SK-MEL-2 melanoma, 1.34 µM; in the test on K-562 leukemia, above 100 µM; in the test on HCC-2998 colon, 14.9 µM; in the test with HL-60(TB) leukemia it was above 100 µM; in the test on TK-10 renal, 3.36 µM. Moreover, the TGI is 12.8 µM in the test with T-47D breast and above 100 µM in the test on UACC-257 melanoma.
